Results taken from the NIST ThermoML archive (doi:10.1016/j.fluid.2007.03.019).

Experiment: osmotic coefficient (dimensionless); mn = molality of the nth substance listed, in mol/kg
Settings: 318.15 K, 101 kPa, Liquid

CCCCn1cc[n+](C)c1.F[B-](F)(F)F [1-butyl-3-methylimidazolium tetrafluoroborate] + CC#N
osmometer
Settings	osmotic coefficient
m1 = 0.0093	0.906
m1 = 0.0203	0.648
m1 = 0.0341	0.462
m1 = 0.0631	0.293
m1 = 0.0795	0.273
m1 = 0.1043	0.314
m1 = 0.1163	0.344
m1 = 0.1359	0.412
m1 = 0.1472	0.462
m1 = 0.1631	0.553
m1 = 0.1791	0.646
m1 = 0.2091	0.872

CCCCn1cc[n+](C)c1.F[P-](F)(F)(F)(F)F [1-butyl-3-methylimidazolium hexafluorophosphate] + CC#N
osmometer
Settings	osmotic coefficient
m1 = 0.0116	0.76
m1 = 0.019	0.636
m1 = 0.0321	0.477
m1 = 0.0366	0.436
m1 = 0.0544	0.323
m1 = 0.0691	0.278
m1 = 0.0918	0.287
m1 = 0.1015	0.314
m1 = 0.1285	0.415
m1 = 0.1496	0.515
m1 = 0.1789	0.692
m1 = 0.2032	0.857

CCCCn1cc[n+](C)c1.[Br-] [1-butyl-3-methylimidazolium bromide] + O
vapor pressure osmometry
Settings	osmotic coefficient
m1 = 0.022	0.944
m1 = 0.0461	0.926
m1 = 0.0726	0.894
m1 = 0.1241	0.855
m1 = 0.2702	0.809
m1 = 0.3522	0.785
m1 = 0.3994	0.777
m1 = 0.5204	0.755
m1 = 0.7354	0.726
m1 = 0.9713	0.713
m1 = 1.272	0.701
m1 = 2.024	0.69

CCCCn1cc[n+](C)c1.F[B-](F)(F)F [1-butyl-3-methylimidazolium tetrafluoroborate] + O
vapor pressure osmometry
Settings	osmotic coefficient
m1 = 0.0101	1.01
m1 = 0.0355	0.992
m1 = 0.044	0.927
m1 = 0.0701	0.887
m1 = 0.0971	0.864
m1 = 0.152	0.808
m1 = 0.1977	0.793
m1 = 0.2891	0.739
m1 = 0.3968	0.672
m1 = 0.4678	0.657
m1 = 0.5632	0.611
m1 = 0.799	0.532
m1 = 1.023	0.473
m1 = 1.468	0.372
m1 = 2.417	0.257
